Article PMC10046369, “Low-Affinity/High-Selectivity Dopamine Transport Inhibition Sufficient to Rescue Cognitive Functions in the Aging Rat” (Biomolecules, 2023)

How the values were obtained:
Assay in all cases: biochemical
Set-up in all cases: KINOMEscan competition binding panel, per cent of control
Conditions in all cases: read-out: %Ctrl @ 2800nM
CDKL3 = CDKL3 (Homo sapiens, UniProt Q8IVW4)
How it was run: (§1)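 Competition binding panel (KINOMEscan) across 450 human kinases and disease-relevant mutants, run to the contractor's standard protocol. Values are % control: (test signal − positive control signal)/(negative control signal − positive control signal) × 100, with lower values indicating stronger binding.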

MEK1 = biological target: T1, MEK1 (Homo sapiens, UniProt Q02750)
T1 construct: gene MAP2K1
How it was run: as §1

CDK4-cyclinD3 = biological target: T2, CDK4-cyclinD3 (Homo sapiens, UniProt P11802)
T2 construct: cyclinD3
How it was run: as §1

CDK4-cyclinD1 = biological target: T3, CDK4-cyclinD1 (Homo sapiens, UniProt P11802)
T3 construct: cyclinD1
How it was run: as §1

EPHB3 = EPHB3 (Homo sapiens, UniProt P54753)
How it was run: as §1

BLK = BLK (Homo sapiens, UniProt P51451)
How it was run: as §1

TAOK3 = TAOK3 (Homo sapiens, UniProt Q9H2K8)
How it was run: as §1

CDK7 = CDK7 (Homo sapiens, UniProt P50613)
How it was run: as §1

[1] = biological target: T4, RSK3(Kin.Dom.1-N-terminal) (Homo sapiens, UniProt Q15349)
T4 construct: gene RPS6KA2; Kin.Dom.1-N-terminal
How it was run: as §1

BRSK2 = BRSK2 (Homo sapiens, UniProt Q8IWQ3)
How it was run: as §1

NEK6 = NEK6 (Homo sapiens, UniProt Q9HC98)
How it was run: as §1

[2] = biological target: T5, ABL1(E255K)-phosphorylated (Homo sapiens, UniProt P00519, E255K)
T5 construct: phosphorylated
How it was run: as §1

ACVR1B = ACVR1B (Homo sapiens, UniProt P36896)
How it was run: as §1

MYLK2 = MYLK2 (Homo sapiens, UniProt Q9H1R3)
How it was run: as §1

RIPK2 = RIPK2 (Homo sapiens, UniProt O43353)
How it was run: as §1

[3] = biological target: T6, ABL1(Y253F)-phosphorylated (Homo sapiens, UniProt P00519, Y253F)
T6 construct: phosphorylated
How it was run: as §1

RET = RET (Homo sapiens, UniProt P07949)
How it was run: as §1

MRCKB = biological target: T7, MRCKB (Homo sapiens, UniProt Q9Y5S2)
T7 construct: gene CDC42BPB
How it was run: as §1

CASK = CASK (Homo sapiens, UniProt O14936)
How it was run: as §1

PKMYT1 = PKMYT1 (Homo sapiens, UniProt Q99640)
How it was run: as §1

RET(V804M) = RET(V804M) (Homo sapiens, UniProt P07949, V804M)
How it was run: as §1

EGFR(L747-T751del,Sins) = EGFR(L747-T751del,Sins) (Homo sapiens, UniProt P00533, DEL747-750/T751S)
How it was run: as §1

EGFR(G719S) = EGFR(G719S) (Homo sapiens, UniProt P00533, G719S)
How it was run: as §1

FAK = biological target: T8, FAK (Homo sapiens, UniProt Q05397)
T8 construct: gene PTK2
How it was run: as §1

[4] = biological target: T9, JAK2(JH1domain-catalytic) (Homo sapiens, UniProt O60674)
T9 construct: JH1domain-catalytic
How it was run: as §1

AKT1 = AKT1 (Homo sapiens, UniProt P31749)
How it was run: as §1

T4 sequence (Q15349 whole entry): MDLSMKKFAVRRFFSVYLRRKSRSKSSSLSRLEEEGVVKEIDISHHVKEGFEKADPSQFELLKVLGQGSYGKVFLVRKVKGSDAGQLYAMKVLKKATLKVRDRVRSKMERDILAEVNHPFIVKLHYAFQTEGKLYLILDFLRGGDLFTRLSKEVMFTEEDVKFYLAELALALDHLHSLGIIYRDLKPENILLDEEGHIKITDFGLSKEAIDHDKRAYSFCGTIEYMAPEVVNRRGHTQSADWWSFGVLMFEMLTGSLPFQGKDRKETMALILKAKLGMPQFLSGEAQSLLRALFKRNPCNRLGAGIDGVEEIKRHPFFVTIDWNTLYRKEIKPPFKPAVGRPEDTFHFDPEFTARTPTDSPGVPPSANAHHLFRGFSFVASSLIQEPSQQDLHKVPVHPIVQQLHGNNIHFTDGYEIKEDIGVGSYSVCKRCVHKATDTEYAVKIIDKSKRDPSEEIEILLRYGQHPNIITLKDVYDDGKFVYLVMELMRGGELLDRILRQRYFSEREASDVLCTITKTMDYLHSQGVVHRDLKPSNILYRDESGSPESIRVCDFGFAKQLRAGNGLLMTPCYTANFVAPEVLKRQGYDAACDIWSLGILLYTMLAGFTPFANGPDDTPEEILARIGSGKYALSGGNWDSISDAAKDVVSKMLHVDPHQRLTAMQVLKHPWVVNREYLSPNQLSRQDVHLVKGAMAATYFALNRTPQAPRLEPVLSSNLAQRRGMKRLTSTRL
Chain of PKMYT1 (Q99640 whole entry): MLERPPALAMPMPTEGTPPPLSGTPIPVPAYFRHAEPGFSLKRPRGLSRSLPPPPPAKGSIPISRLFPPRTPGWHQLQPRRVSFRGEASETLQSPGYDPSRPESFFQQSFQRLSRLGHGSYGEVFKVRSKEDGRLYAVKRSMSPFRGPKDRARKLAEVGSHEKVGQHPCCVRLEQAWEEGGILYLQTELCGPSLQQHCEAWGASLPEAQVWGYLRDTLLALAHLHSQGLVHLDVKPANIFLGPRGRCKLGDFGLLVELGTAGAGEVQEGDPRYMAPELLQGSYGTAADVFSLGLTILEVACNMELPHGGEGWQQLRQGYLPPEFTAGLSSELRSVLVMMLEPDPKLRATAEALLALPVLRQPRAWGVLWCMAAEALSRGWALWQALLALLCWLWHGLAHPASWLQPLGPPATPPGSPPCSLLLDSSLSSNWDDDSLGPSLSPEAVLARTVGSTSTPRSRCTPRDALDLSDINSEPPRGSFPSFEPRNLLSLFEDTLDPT
Chain of EGFR(L747-T751del,Sins) (P00533 with tags, fused parts or gaps DEL747-750/T751S): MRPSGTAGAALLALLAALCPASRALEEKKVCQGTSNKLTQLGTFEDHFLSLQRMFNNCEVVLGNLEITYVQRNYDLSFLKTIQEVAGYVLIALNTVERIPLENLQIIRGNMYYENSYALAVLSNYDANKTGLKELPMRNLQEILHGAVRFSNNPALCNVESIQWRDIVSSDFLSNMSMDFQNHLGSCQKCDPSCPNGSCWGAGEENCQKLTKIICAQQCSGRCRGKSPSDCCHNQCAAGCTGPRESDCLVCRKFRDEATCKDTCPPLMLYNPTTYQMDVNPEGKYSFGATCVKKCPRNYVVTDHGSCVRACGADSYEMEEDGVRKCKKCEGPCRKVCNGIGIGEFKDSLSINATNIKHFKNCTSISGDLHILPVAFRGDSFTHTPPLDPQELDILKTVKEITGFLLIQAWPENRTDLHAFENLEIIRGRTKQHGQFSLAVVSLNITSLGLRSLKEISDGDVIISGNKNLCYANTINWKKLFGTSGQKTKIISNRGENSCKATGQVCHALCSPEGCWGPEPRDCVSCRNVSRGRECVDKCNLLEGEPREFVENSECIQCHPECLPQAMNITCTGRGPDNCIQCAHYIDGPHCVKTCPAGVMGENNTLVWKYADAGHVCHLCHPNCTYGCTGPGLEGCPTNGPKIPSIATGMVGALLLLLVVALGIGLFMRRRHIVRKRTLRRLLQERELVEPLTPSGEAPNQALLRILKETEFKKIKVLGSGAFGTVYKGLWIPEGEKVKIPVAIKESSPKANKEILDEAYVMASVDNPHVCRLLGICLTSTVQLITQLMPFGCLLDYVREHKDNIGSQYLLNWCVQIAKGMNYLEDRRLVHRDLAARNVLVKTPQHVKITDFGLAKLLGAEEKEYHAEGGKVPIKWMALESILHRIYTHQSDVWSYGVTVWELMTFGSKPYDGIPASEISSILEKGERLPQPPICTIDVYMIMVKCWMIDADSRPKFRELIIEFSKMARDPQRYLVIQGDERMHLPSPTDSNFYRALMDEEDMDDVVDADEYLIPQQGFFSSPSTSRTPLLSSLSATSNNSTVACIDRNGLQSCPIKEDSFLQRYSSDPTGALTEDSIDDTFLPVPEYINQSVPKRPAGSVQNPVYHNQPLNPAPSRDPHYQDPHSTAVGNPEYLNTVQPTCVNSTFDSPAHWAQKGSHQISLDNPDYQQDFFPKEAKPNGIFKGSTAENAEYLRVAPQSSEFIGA
Chain of ACVR1B (P36896 whole entry): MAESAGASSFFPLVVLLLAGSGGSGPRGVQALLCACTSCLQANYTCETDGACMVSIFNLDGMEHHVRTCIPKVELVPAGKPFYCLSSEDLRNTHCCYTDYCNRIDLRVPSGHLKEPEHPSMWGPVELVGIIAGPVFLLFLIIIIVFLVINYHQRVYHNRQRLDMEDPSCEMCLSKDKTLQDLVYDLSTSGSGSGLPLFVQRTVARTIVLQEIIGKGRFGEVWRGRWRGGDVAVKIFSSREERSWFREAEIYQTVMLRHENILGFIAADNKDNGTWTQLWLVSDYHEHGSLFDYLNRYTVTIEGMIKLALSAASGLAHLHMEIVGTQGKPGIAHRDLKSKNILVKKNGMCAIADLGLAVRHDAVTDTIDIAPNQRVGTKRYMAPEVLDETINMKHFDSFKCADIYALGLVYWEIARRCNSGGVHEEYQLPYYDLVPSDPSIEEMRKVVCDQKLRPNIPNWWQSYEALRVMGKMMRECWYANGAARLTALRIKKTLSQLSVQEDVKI
Chain of BRSK2 (Q8IWQ3 whole entry): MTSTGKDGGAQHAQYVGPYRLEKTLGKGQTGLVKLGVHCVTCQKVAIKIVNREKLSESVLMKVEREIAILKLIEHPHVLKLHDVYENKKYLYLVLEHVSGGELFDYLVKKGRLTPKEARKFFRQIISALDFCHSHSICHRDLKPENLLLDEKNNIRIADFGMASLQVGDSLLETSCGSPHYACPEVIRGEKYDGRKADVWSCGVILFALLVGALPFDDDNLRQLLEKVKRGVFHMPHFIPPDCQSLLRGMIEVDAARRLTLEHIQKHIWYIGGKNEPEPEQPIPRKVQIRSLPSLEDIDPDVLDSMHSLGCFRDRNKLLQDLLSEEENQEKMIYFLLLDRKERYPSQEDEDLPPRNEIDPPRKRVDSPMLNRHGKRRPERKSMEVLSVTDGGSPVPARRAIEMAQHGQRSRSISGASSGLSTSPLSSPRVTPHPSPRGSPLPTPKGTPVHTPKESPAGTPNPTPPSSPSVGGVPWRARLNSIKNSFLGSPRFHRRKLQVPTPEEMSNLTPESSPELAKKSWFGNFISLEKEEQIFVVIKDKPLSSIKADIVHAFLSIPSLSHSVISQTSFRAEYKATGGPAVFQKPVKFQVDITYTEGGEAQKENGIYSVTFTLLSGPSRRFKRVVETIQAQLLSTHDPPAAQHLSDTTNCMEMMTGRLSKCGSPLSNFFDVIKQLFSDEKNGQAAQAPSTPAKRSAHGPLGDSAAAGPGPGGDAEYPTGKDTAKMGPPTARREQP
T2 sequence (P11802 whole entry): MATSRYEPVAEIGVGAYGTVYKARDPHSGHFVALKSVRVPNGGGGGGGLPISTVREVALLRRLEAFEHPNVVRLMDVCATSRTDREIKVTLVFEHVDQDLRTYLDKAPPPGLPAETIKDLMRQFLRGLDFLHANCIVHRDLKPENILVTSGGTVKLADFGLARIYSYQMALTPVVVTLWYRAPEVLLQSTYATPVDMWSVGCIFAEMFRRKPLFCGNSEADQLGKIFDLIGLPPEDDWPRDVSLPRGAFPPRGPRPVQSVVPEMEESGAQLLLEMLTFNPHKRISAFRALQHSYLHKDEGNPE
T2 sequence (P30281 whole entry partner): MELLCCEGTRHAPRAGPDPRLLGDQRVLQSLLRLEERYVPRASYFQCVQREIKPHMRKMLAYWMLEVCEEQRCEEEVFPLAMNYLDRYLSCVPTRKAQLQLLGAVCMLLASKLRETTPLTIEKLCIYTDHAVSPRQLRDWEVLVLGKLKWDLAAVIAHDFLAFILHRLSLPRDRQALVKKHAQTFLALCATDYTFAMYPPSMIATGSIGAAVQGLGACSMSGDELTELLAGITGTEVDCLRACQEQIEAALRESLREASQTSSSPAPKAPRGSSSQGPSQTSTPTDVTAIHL
T3 sequence (P11802 whole entry): as the sequence (P11802 whole entry) above
T3 sequence (P24385 whole entry partner): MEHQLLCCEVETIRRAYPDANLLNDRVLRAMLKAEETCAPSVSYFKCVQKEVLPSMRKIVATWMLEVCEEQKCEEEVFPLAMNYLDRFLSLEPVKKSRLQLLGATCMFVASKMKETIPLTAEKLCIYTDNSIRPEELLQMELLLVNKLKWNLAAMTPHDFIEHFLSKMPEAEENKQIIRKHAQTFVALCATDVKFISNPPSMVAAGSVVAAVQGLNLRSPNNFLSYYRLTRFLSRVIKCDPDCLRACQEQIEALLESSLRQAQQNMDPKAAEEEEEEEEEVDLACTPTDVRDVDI
Chain of CDK7 (P50613 whole entry): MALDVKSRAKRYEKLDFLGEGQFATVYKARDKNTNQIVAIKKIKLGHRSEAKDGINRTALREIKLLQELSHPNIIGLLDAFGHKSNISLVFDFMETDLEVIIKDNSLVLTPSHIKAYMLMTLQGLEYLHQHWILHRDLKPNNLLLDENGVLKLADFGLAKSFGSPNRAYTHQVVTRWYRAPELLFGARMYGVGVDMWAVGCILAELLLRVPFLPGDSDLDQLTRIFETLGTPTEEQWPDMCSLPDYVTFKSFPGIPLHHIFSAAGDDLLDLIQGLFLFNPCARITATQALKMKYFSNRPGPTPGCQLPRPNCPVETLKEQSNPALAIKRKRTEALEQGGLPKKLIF

[O-][S@@+](Cc1cncs1)C(c1ccccc1)c1ccccc1 [S-CE-123, (S)-5-((Benzhydrylsulfinyl)Methyl)Thiazole]
remaining binding at 2.8 µM (CDKL3): 81%
remaining binding at 2.8 µM (MEK1): 94%
remaining binding at 2.8 µM (CDK4-cyclinD3): 85%
remaining binding at 2.8 µM (CDK4-cyclinD1): 100%
remaining binding at 2.8 µM (EPHB3): 100%
remaining binding at 2.8 µM (BLK): 90%
remaining binding at 2.8 µM (TAOK3): 91%
remaining binding at 2.8 µM (CDK7): 70%
remaining binding at 2.8 µM [1]: 100%
remaining binding at 2.8 µM (BRSK2): 100%
remaining binding at 2.8 µM (NEK6): 100%
remaining binding at 2.8 µM [2]: 73%
remaining binding at 2.8 µM (ACVR1B): 100%
remaining binding at 2.8 µM (MYLK2): 99%
remaining binding at 2.8 µM (RIPK2): 100%
remaining binding at 2.8 µM [3]: 93%
remaining binding at 2.8 µM (RET): 96%
remaining binding at 2.8 µM (MRCKB): 98%
remaining binding at 2.8 µM (CASK): 82%
remaining binding at 2.8 µM (PKMYT1): 88%
remaining binding at 2.8 µM (RET(V804M)): 95%
remaining binding at 2.8 µM (EGFR(L747-T751del,Sins)): 57%
remaining binding at 2.8 µM (EGFR(G719S)): 77%
remaining binding at 2.8 µM (FAK): 100%
remaining binding at 2.8 µM [4]: 100%
remaining binding at 2.8 µM (AKT1): 99%
